Data from US20260097022A1, “COMPOUNDS AND USES THEREOF” (Integrated Biosciences, Inc., priority 2023, published 2026).

system: etoposide-treated IMR-90 cells; experiment: Etoposide-induced senescence model, resazurin cell viability (screen and dose-response); type: cell-based, human; conditions: etoposide-induced senescence model; ratio of IC50 values between etoposide- and DMSO-treated IMR-90 fibroblasts
Method: Cell culture. Human lung fibroblast (IMR-90) cells were obtained from ATCC (CCL-186) and passaged less than 10 times (less than 30 population doublings) for all experiments described in this example, with the exception of high-passage cells used in the model of replicative senescence (see the section on Replicative senescence below). Cells were cultured in growth media comprising Eagle's Minimum Essential Medium (EMEM: ATCC 30-2003) supplemented with 10% fetal bovine serum (FBS: Thermo Fisher 16140071) and 1% penicillin-streptomycin (Thermo Fisher 15070063). Cells were incubated in a humidity-controlled incubator at 37° C., with 5% CO2. Cells were detached using trypsin-EDTA (0.05%; Gibco 25300120).
Etoposide-induced senescence. IMR-90 cells were cultured as described above. At between 30 to 50% confluence, the media was replaced with complete growth media containing vehicle (0.5% dimethyl sulfoxide: DMSO, MilliporeSigma D5879) or complete growth media containing 50 μM etoposide (prepared as a 1:200 dilution of a 10 mM stock solution in DMSO; etoposide, MilliporeSigma E1383). Cells were treated for 2 days, after which the media was replaced with fresh growth media and cells were allowed to recover for 4 days. Cells were then plated as described below.
Chemical screening. For all screening experiments. 99 μL of cells were plated into each well of a 96-well clear flat-bottom, black polystyrene tissue-culture-treated plate (Corning 3904) at a density of ˜10+ cells/well. Plates were incubated overnight for adhesion. The day after plating. 1 μL of each compound, prepared as either a 1 mM stock solution in DMSO (10 μM final concentration screen) or 0.1 mM stock solution in DMSO (1 μM final concentration screen), was added to each well using an Agilent Bravo liquid handler. A built-in slow mixing step involving aspirating and dispensing was used to enhance distribution of the added compounds in solution. Cells were incubated for 3 days, after which resazurin (MilliporeSigma R^7017) was added to each well to a final concentration of 0.15 mM. After an additional 1 day of incubation, the fluorescence excitation/emission at 550/590 nm was read using a SpectraMaxR M3 plate reader and manufacturer software (SoftMax Pro R 6). Experiments were performed in biological duplicate.
Three-fold serial dilutions of compound were prepared in DMSO, then added to cell plates (final concentration of DMSO. 1%). Cell viability was then assayed as detailed above, and resazurin fluorescence values were linearly interpolated with respect to values from empty and positive control (non-treatment) wells. Experiments were performed in biological duplicate each on two independent occasions. When possible, chemical stocks from commercial suppliers were used: econazole nitrate (Cayman Chemical 20223), artenimol (Cayman Chemical 19846), and ABT-263 (Cayman Chemical 11500) were from Cayman Chemical, and dehydrodeguelin was aliquoted from the screening library.
Calculation of cellular viability values in dose-response curves. […] For each sample, the fluorescence intensity value was normalized by the mean of two untreated control values. Cellular viability values are therefore indicated as fractions of the cellular viability of untreated controls. Vehicle (1% DMSO) control values are included in each dose-response curve. Experiments were performed in biological duplicate each on two independent occasions.
Calculation of baseline cellular viability values. […] Additionally, baseline cellular viability values were calculated for untreated cells at the start of the experiment. Resazurin was added to a final concentration of 0.15 mM on the day of seeding (corresponding to day 0 in FIG. 7).

Row | SMILES | Therapeutic Index (TI)
1 | CCc1ccc(NC(=O)CSc2nc3ccc(NC(=O)c4ccccc4OC)cc3s2)cc1 [compound 123] | ++ (compounds with a TI of 1 to 5 were labelled as ++)
2 | CCOc1ccc(C(=O)Nc2ccc3nc(SCC(=O)Nc4ccc(F)cc4)sc3c2)cc1 [compound 120] | ++ (compounds with a TI of 1 to 5 were labelled as ++)
3 | CCOc1ccc(NC(=O)CSc2nc3ccc(NC(=O)c4ccccc4OC)cc3s2)cc1 [compound 40] | ++ (compounds with a TI of 1 to 5 were labelled as ++)
4 | COc1ccc(NC(=O)CSc2nc3ccc(NC(=O)c4cccc(OC)c4)cc3s2)cc1 [compound 12] | +++ (compounds with a TI of >5 were labeled as +++)
5 | O=C(CSc1nc2ccc(NC(=O)c3ccc(F)cc3)cc2s1)Nc1cccc(Cl)c1 [compound 51] | ++ (compounds with a TI of 1 to 5 were labelled as ++)
6 | COc1ccc(CNC(=O)CSc2nc3ccc(NC(=O)c4ccccc4C)cc3s2)cc1 [compound 161] | + (Compounds with a TI of <1 were labelled as +)
7 | CCCCOc1ccc(NC(=O)CSc2nc3ccc(NC(=O)c4ccc(Cl)cc4Cl)cc3s2)cc1 [compound 129] | ++ (compounds with a TI of 1 to 5 were labelled as ++)
8 | COc1ccc(NC(=O)CSc2nc3ccc(NC(=O)c4ccccc4Cl)cc3s2)cc1 [compound 66] | ++ (compounds with a TI of 1 to 5 were labelled as ++)
9 | COc1ccc(C(=O)Nc2ccc3nc(SCC(=O)Nc4ccccc4)sc3c2)c(F)c1 [compound 172] | +++ (compounds with a TI of >5 were labeled as +++)
10 | COc1ccc(NC(=O)CSc2nc3ccc(NC(=O)c4cccc(C)c4)cc3s2)cc1 [compound 55] | ++ (compounds with a TI of 1 to 5 were labelled as ++)
11 | CCCCOc1ccc(NC(=O)CSc2nc3ccc(NC(=O)c4ccccc4Cl)cc3s2)cc1 [compound 148] | + (Compounds with a TI of <1 were labelled as +)
12 | O=C(CSc1nc2ccc(NC(=O)c3ccccc3Cl)cc2s1)Nc1ccccc1F [compound 42] | ++ (compounds with a TI of 1 to 5 were labelled as ++)
13 | CCC(Sc1nc2ccc(NC(=O)c3ccccc3)cc2s1)C(=O)Nc1ccc(C(C)=O)cc1 (stereo not drawn) [compound 15] | +++ (compounds with a TI of >5 were labeled as +++)
14 | COc1ccc(C(=O)Nc2ccc3nc(SCC(=O)Nc4ccccc4)sc3c2)cc1OC [compound 5] | +++ (compounds with a TI of >5 were labeled as +++)
15 | COc1ccc(NC(=O)CSc2nc3ccc(NC(=O)c4ccc(Cl)cc4)cc3s2)cc1 [compound 111] | ++ (compounds with a TI of 1 to 5 were labelled as ++)
16 | CCOc1ccc(C(=O)Nc2ccc3nc(SCC(N)=O)sc3c2)cc1 [compound 91] | ++ (compounds with a TI of 1 to 5 were labelled as ++)
17 | COc1ccc(NC(=O)CSc2nc3ccc(NC(=O)c4cccc(Cl)c4)cc3s2)cc1 [compound 79] | ++ (compounds with a TI of 1 to 5 were labelled as ++)
18 | COc1ccc(C(=O)Nc2ccc3nc(SCC(=O)Nc4cc(C)cc(C)c4)sc3c2)cc1 [compound 103] | ++ (compounds with a TI of 1 to 5 were labelled as ++)
19 | Cc1ccccc1C(=O)Nc1ccc2nc(SCC(=O)Nc3ccc(Br)cc3)sc2c1 [compound 121] | ++ (compounds with a TI of 1 to 5 were labelled as ++)
20 | O=C(CSc1nc2ccc(NC(=O)c3ccccc3)cc2s1)Nc1ccccc1 [compound 142] | + (Compounds with a TI of <1 were labelled as +)
21 | CCC(Sc1nc2ccc(NC(=O)c3ccc(C)cc3)cc2s1)C(=O)Nc1ccc(Cl)cc1 (stereo not drawn) [compound 65] | ++ (compounds with a TI of 1 to 5 were labelled as ++)

Row | SMILES | Therapeutic Index (TI)
22 | CC(=O)c1ccc(NC(=O)CSc2nc3ccc(NC(=O)c4ccc(C)cc4)cc3s2)cc1 [compound 154] | + (Compounds with a TI of <1 were labelled as +)
23 | Cc1ccccc1C(=O)Nc1ccc2nc(SCC(=O)Nc3ccc(F)cc3)sc2c1 [compound 20] | +++ (compounds with a TI of >5 were labeled as +++)
24 | Cc1ccccc1C(=O)Nc1ccc2nc(SCC(=O)Nc3ccc([N+](=O)[O-])cc3)sc2c1 [compound 73] | ++ (compounds with a TI of 1 to 5 were labelled as ++)
25 | COc1cccc(C(=O)Nc2ccc3nc(SCC(=O)Nc4ccccc4)sc3c2)c1 [compound 53] | ++ (compounds with a TI of 1 to 5 were labelled as ++)
26 | COc1ccccc1C(=O)Nc1ccc2nc(SCC(=O)Nc3ccccc3C)sc2c1 [compound 130] | ++ (compounds with a TI of 1 to 5 were labelled as ++)
27 | COC(=O)c1ccc(NC(=O)CSc2nc3ccc(NC(=O)c4ccccc4F)cc3s2)cc1 [compound 105] | ++ (compounds with a TI of 1 to 5 were labelled as ++)
28 | COc1ccc(NC(=O)CSc2nc3ccc(NC(=O)c4ccccc4F)cc3s2)cc1 [compound 3] | +++ (compounds with a TI of >5 were labeled as +++)
29 | Cc1cc(C)c(NC(=O)CSc2nc3ccc(NC(=O)c4ccccc4Cl)cc3s2)c(C)c1 [compound 58] | ++ (compounds with a TI of 1 to 5 were labelled as ++)
30 | CCCCOc1ccc(NC(=O)CSc2nc3ccc(NC(=O)c4ccccc4OC)cc3s2)cc1 [compound 109] | ++ (compounds with a TI of 1 to 5 were labelled as ++)
31 | CC(C)(C)c1ccc(C(=O)Nc2ccc3nc(SCC(=O)Nc4ccccc4)sc3c2)cc1 [compound 98] | ++ (compounds with a TI of 1 to 5 were labelled as ++)
32 | Cc1ccccc1C(=O)Nc1ccc2nc(SCC(=O)N(C)c3ccccc3)sc2c1 [compound 125] | ++ (compounds with a TI of 1 to 5 were labelled as ++)
33 | Cc1ccc(Cl)cc1NC(=O)CSc1nc2ccc(NC(=O)c3ccc(F)cc3)cc2s1 [compound 61] | ++ (compounds with a TI of 1 to 5 were labelled as ++)
34 | O=C(CSc1nc2ccc(NC(=O)c3ccccc3Cl)cc2s1)Nc1ccc(F)cc1 [compound 23] | +++ (compounds with a TI of >5 were labeled as +++)
35 | CCOc1ccc(C(=O)Nc2ccc3nc(SCC(=O)N(C)c4ccccc4)sc3c2)cc1 [compound 49] | ++ (compounds with a TI of 1 to 5 were labelled as ++)
36 | O=C(CSc1nc2ccc(NC(=O)c3ccc(F)cc3)cc2s1)Nc1ccccc1 [compound 122] | ++ (compounds with a TI of 1 to 5 were labelled as ++)
37 | CC(=O)c1ccc(NC(=O)CSc2nc3ccc(NC(=O)c4ccccc4)cc3s2)cc1 [compound 157] | + (Compounds with a TI of <1 were labelled as +)
38 | Cc1cccc(NC(=O)CSc2nc3ccc(NC(=O)c4cccc5ccccc45)cc3s2)c1C [compound 102] | ++ (compounds with a TI of 1 to 5 were labelled as ++)
39 | Cc1ccccc1C(=O)Nc1ccc2nc(SCC(=O)Nc3ccc(Cl)cc3)sc2c1 [compound 100] | ++ (compounds with a TI of 1 to 5 were labelled as ++)
40 | CCCCOc1ccc(NC(=O)CSc2nc3ccc(NC(=O)c4cccc(C)c4)cc3s2)cc1 [compound 126] | ++ (compounds with a TI of 1 to 5 were labelled as ++)
41 | Cc1ccccc1C(=O)Nc1ccc2nc(SCC(=O)Nc3ccc(C(C)C)cc3)sc2c1 [compound 151] | + (Compounds with a TI of <1 were labelled as +)
42 | CC(=O)Nc1ccc(NC(=O)CSc2nc3ccc(NC(=O)c4ccccc4)cc3s2)cc1 [compound 135] | ++ (compounds with a TI of 1 to 5 were labelled as ++)
